Test results from PubChem BioAssay (NCI).
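Interpolation was linear, between the two tested concentrations surrounding the appropriate level; five concentrations were tested over 48 hours in 96-well plates. The concentration for 50% growth inhibition is given as GI50. TGI: concentration producing complete growth inhibition.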

What was measured:
Assay in all cases: NCI-60 cell line screen, 48 h
MDA-MB-468 breast = system: MDA-MB-468 breast
M14 melanoma = system: M14 melanoma
NCI-H460 lung = system: NCI-H460 lung
SNB-75 CNS = system: SNB-75 CNS
NCI-H23 lung = system: NCI-H23 lung
A498 renal = system: A498 renal
LOX IMVI melanoma = system: LOX IMVI melanoma
MDA-MB-435 = system: MDA-MB-435
PC-3 prostate = system: PC-3 prostate
MALME-3M melanoma = system: MALME-3M melanoma
MOLT-4 leukemia = system: MOLT-4 leukemia
OVCAR-5 ovarian = system: OVCAR-5 ovarian
NCI-H226 lung = system: NCI-H226 lung
MDA-MB-231 breast = system: MDA-MB-231 breast
SR leukemia = system: SR leukemia
HOP-62 NSCLC = system: HOP-62 NSCLC
HT29 colon = system: HT29 colon
COLO 205 colon = system: COLO 205 colon
HS 578T breast = system: HS 578T breast
HL-60(TB) leukemia = system: HL-60(TB) leukemia
U251 CNS = system: U251 CNS
786-0 renal = system: 786-0 renal
K-562 leukemia = system: K-562 leukemia
SF-295 CNS = system: SF-295 CNS
BT-549 breast = system: BT-549 breast
SF-539 CNS = system: SF-539 CNS
UACC-257 melanoma = system: UACC-257 melanoma
UO-31 renal = system: UO-31 renal
IGROV1 ovarian = system: IGROV1 ovarian
SNB-19 CNS = system: SNB-19 CNS
TK-10 renal = system: TK-10 renal
SK-OV-3 ovarian = system: SK-OV-3 ovarian
EKVX NSCLC = system: EKVX NSCLC
UACC-62 melanoma = system: UACC-62 melanoma
KM12 colon = system: KM12 colon
HCC-2998 colon = system: HCC-2998 colon
SK-MEL-28 melanoma = system: SK-MEL-28 melanoma
RPMI-8226 leukemia = system: RPMI-8226 leukemia
OVCAR-3 ovarian = system: OVCAR-3 ovarian
ACHN renal = system: ACHN renal
SK-MEL-5 melanoma = system: SK-MEL-5 melanoma
MCF7 breast = system: MCF7 breast
A549 NSCLC = system: A549 NSCLC
SK-MEL-2 melanoma = system: SK-MEL-2 melanoma
CAKI-1 renal = system: CAKI-1 renal
RXF 393 renal = system: RXF 393 renal
HCT-15 colon = system: HCT-15 colon
SN12C renal = system: SN12C renal
SF-268 CNS = system: SF-268 CNS

O=c1oc2ccc(Br)cc2c(=O)n1-c1ccc(Br)cc1F
GI50 (MDA-MB-468 breast): 819 nM | TGI (MDA-MB-468 breast): 4320 nM

C/C(=C1\SC(=NCc2cccs2)NC1=O)c1ccc2ncccc2c1
GI50 (MDA-MB-468 breast): 7130 nM | TGI (MDA-MB-468 breast): > 25000 nM

Cn1cc(-c2nonc2-c2cn(C)c3ccc(F)cc23)c2ccccc21
GI50 (MDA-MB-468 breast): 515 nM | TGI (MDA-MB-468 breast): > 84000 nM

Cc1cc(Nc2nc(-c3ccc(F)cc3)nc3ccccc23)n[nH]1
GI50 (MDA-MB-468 breast): 2010 nM | TGI (MDA-MB-468 breast): 11300 nM

CCN1C(C)(C)CC(Oc2ccc(C(=O)Nc3ccc(NC(=O)Nc4cc(C(C)(C)C)on4)cc3)nc2)CC1(C)C
GI50 (MDA-MB-468 breast): 3210 nM | TGI (MDA-MB-468 breast): 8950 nM

CN1N=C(N)c2cn(C3OC(COP(=O)(O)O)C(O)C3O)c3ncnc1c23 (stereo not drawn)
GI50 (MDA-MB-468 breast): 205 nM | TGI (MDA-MB-468 breast): 3050 nM

O=C(NCCCN1CCC(N2CCCCC2)CC1)C1=Cc2cc(Br)ccc2OC1
GI50 (MDA-MB-468 breast): 3150 nM | TGI (MDA-MB-468 breast): 12600 nM

Oc1c(I)cc(I)cc1CNCCN(Cc1ccccn1)Cc1ccccn1
GI50 (MDA-MB-468 breast): 1670 nM | TGI (MDA-MB-468 breast): 4850 nM

O=c1[nH]cnc2c1ccn2C1OC(CO)C(O)C1O (stereo not drawn)
GI50 (MDA-MB-468 breast): 762 nM | TGI (MDA-MB-468 breast): 3730 nM

CCn1c(-c2nonc2N)nc2c(C#CC(C)(C)O)nc(CN3CCCC3)cc21
GI50 (MDA-MB-468 breast): 4150 nM | TGI (MDA-MB-468 breast): > 25000 nM

Clc1ccc(Nc2nnc(CNc3ccccc3)c3ccccc23)cc1
GI50 (MDA-MB-468 breast): 1900 nM | TGI (MDA-MB-468 breast): 11500 nM

O=C1NC(=NCc2ccccc2Br)S/C1=C\c1ccc2ncccc2c1
GI50 (MDA-MB-468 breast): 4220 nM | TGI (MDA-MB-468 breast): > 25000 nM

Clc1ccc(CNc2ccc3nc(CCC4CCCCC4)[nH]c3c2)cc1
GI50 (MDA-MB-468 breast): 1570 nM | TGI (MDA-MB-468 breast): 3470 nM

COc1ccc(C2C(C#N)=C(N)Oc3c2sc2c(F)cccc32)cc1 (stereo not drawn)
GI50 (MDA-MB-468 breast): 1340 nM | TGI (MDA-MB-468 breast): 10600 nM

C=CCNCCN1C(=O)c2ccc3c4c(ccc(c24)C1=O)C(=O)N(CCNCC=C)C3=O
GI50 (MDA-MB-468 breast): 466 nM | TGI (MDA-MB-468 breast): 1160 nM

CSc1ccc(NC(=O)c2ccc3nn(/C(C#N)=C/c4ccccn4)nc3c2)cc1
GI50 (M14 melanoma): 1780 nM | TGI (M14 melanoma): 3300 nM | GI50 (NCI-H460 lung): 1880 nM | TGI (NCI-H460 lung): 3950 nM | GI50 (SNB-75 CNS): 1420 nM | TGI (SNB-75 CNS): 4260 nM | GI50 (NCI-H23 lung): 1570 nM | TGI (NCI-H23 lung): 2990 nM | GI50 (A498 renal): 1900 nM | TGI (A498 renal): 3710 nM | GI50 (LOX IMVI melanoma): 1230 nM | TGI (LOX IMVI melanoma): 2520 nM | GI50 (MDA-MB-435): 1540 nM | TGI (MDA-MB-435): 3190 nM | GI50 (PC-3 prostate): 1880 nM | TGI (PC-3 prostate): 3970 nM | GI50 (MALME-3M melanoma): 1450 nM | TGI (MALME-3M melanoma): 2830 nM | GI50 (MOLT-4 leukemia): 796 nM | TGI (MOLT-4 leukemia): 4630 nM | GI50 (OVCAR-5 ovarian): 1590 nM | TGI (OVCAR-5 ovarian): 3070 nM | GI50 (NCI-H226 lung): 1980 nM | TGI (NCI-H226 lung): 4730 nM | GI50 (MDA-MB-231 breast): 1520 nM | TGI (MDA-MB-231 breast): 2970 nM | GI50 (SR leukemia): 1150 nM | TGI (SR leukemia): 7600 nM | GI50 (HOP-62 NSCLC): 1950 nM | TGI (HOP-62 NSCLC): 3870 nM | GI50 (MDA-MB-468 breast): 1080 nM | TGI (MDA-MB-468 breast): 2590 nM | GI50 (HT29 colon): 1870 nM | TGI (HT29 colon): 4510 nM | GI50 (COLO 205 colon): 1720 nM | TGI (COLO 205 colon): 3300 nM | GI50 (HS 578T breast): 2200 nM | TGI (HS 578T breast): 7680 nM | GI50 (HL-60(TB) leukemia): 626 nM | TGI (HL-60(TB) leukemia): 3750 nM | GI50 (U251 CNS): 1590 nM | TGI (U251 CNS): 3170 nM | GI50 (786-0 renal): 1700 nM | TGI (786-0 renal): 3130 nM | GI50 (K-562 leukemia): 681 nM | TGI (K-562 leukemia): 5050 nM | GI50 (SF-295 CNS): 1730 nM | TGI (SF-295 CNS): 3290 nM | GI50 (BT-549 breast): 1670 nM | TGI (BT-549 breast): 3110 nM | GI50 (SF-539 CNS): 1670 nM | TGI (SF-539 CNS): 3040 nM | GI50 (UACC-257 melanoma): 1640 nM | TGI (UACC-257 melanoma): 3170 nM | GI50 (UO-31 renal): 1200 nM | TGI (UO-31 renal): 2430 nM | GI50 (IGROV1 ovarian): 1740 nM | TGI (IGROV1 ovarian): 3360 nM | GI50 (SNB-19 CNS): 1850 nM | TGI (SNB-19 CNS): 4260 nM | GI50 (TK-10 renal): 1750 nM | TGI (TK-10 renal): 3210 nM | GI50 (SK-OV-3 ovarian): 2720 nM | TGI (SK-OV-3 ovarian): 6960 nM | GI50 (EKVX NSCLC): 1540 nM | TGI (EKVX NSCLC): 3010 nM | GI50 (UACC-62 melanoma): 1620 nM | TGI (UACC-62 melanoma): 3060 nM | GI50 (KM12 colon): 2070 nM | TGI (KM12 colon): 4440 nM | GI50 (HCC-2998 colon): 1650 nM | TGI (HCC-2998 colon): 3010 nM | GI50 (SK-MEL-28 melanoma): 1670 nM | TGI (SK-MEL-28 melanoma): 3050 nM | GI50 (RPMI-8226 leukemia): 1770 nM | TGI (RPMI-8226 leukemia): 5710 nM | GI50 (OVCAR-3 ovarian): 991 nM | TGI (OVCAR-3 ovarian): 2640 nM | GI50 (ACHN renal): 1550 nM | TGI (ACHN renal): 2880 nM | GI50 (SK-MEL-5 melanoma): 1680 nM | TGI (SK-MEL-5 melanoma): 3110 nM | GI50 (MCF7 breast): 971 nM | TGI (MCF7 breast): 2470 nM | GI50 (A549 NSCLC): 2340 nM | TGI (A549 NSCLC): 5990 nM | GI50 (SK-MEL-2 melanoma): 1880 nM | TGI (SK-MEL-2 melanoma): 3530 nM | GI50 (CAKI-1 renal): 1070 nM | TGI (CAKI-1 renal): 2350 nM | GI50 (RXF 393 renal): 1240 nM | TGI (RXF 393 renal): 2510 nM | GI50 (HCT-15 colon): 1150 nM | TGI (HCT-15 colon): 2510 nM | GI50 (SN12C renal): 1870 nM | TGI (SN12C renal): 3970 nM | GI50 (SF-268 CNS): 2360 nM | TGI (SF-268 CNS): 6210 nM
